# Data reported in PubChem BioAssay AID2060901 (Molecular Pharmacology Branch, DTP, NCI, 2025).
# Tested on: 422866-222-R5-J1-PDC complex spheroids viability
# Assay: Anticancer human tumor 422866-222-R5-J1-PDC patient-derived pancreatic adenocarcinoma cell line growth inhibition [RAS]
# Details: for IC50: curve of first compound; for viability, T/C: stronger effect = lower value
# In short: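 Multi-cell-type spheroids: tumor cells plus HUVEC endothelial cells and mesenchymal stem cells. RAS-pathway inhibitors were combined with targeted agents, each dosed in half-log steps down from clinical Cmax, or from 10 microM when Cmax was unknown.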
# 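Also: spheroids exposed to compounds for 7 days.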
# 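For viability, T/C in this document: 100% = DMSO vehicle control viability.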
smiles,measurement,setting,value
Cc1nc(N2CCC3(CC2)COC(C)C3N)c(CO)nc1Sc1ccnc(N)c1Cl (stereo not given) + C=CC(=O)N1CCN(c2nc(OCC3CCCN3C)nc3c(F)c(-c4nc(N)cc(C)c4C(F)(F)F)c(Cl)cc23)C(C)C1,IC50,second compound 0.00316 µM,< 31.6 nM
same,IC50,second compound 0.01 µM,< 31.6 nM
same,IC50,second compound 0.0316 µM,< 31.6 nM
same,IC50,second compound 0.1 µM,< 31.6 nM
same,IC50,second compound 0.316 µM,< 31.6 nM
same,IC50,second compound 1 µM,< 31.6 nM
same,"viability, T/C","second compound 0.00316 µM, first compound 0.0316 µM",24.8%
same,"viability, T/C","second compound 0.00316 µM, first compound 0.1 µM",21.8%
same,"viability, T/C","second compound 0.00316 µM, first compound 0.316 µM",17.4%
same,"viability, T/C","second compound 0.00316 µM, first compound 1 µM",15%
same,"viability, T/C","second compound 0.00316 µM, first compound 3.16 µM",15.1%
same,"viability, T/C","second compound 0.00316 µM, first compound 10 µM",14.8%
same,"viability, T/C","second compound 0.01 µM, first compound 0.0316 µM",30.3%
same,"viability, T/C","second compound 0.01 µM, first compound 0.1 µM",19.8%
same,"viability, T/C","second compound 0.01 µM, first compound 0.316 µM",25%
same,"viability, T/C","second compound 0.01 µM, first compound 1 µM",15.4%
same,"viability, T/C","second compound 0.01 µM, first compound 3.16 µM",14.8%
same,"viability, T/C","second compound 0.01 µM, first compound 10 µM",14.2%
same,"viability, T/C","second compound 0.0316 µM, first compound 0.0316 µM",21.1%
same,"viability, T/C","second compound 0.0316 µM, first compound 0.1 µM",19.3%
same,"viability, T/C","second compound 0.0316 µM, first compound 0.316 µM",13.8%
same,"viability, T/C","second compound 0.0316 µM, first compound 1 µM",13.8%
same,"viability, T/C","second compound 0.0316 µM, first compound 3.16 µM",15.8%
same,"viability, T/C","second compound 0.0316 µM, first compound 10 µM",17.7%
same,"viability, T/C","second compound 0.1 µM, first compound 0.0316 µM",20%
same,"viability, T/C","second compound 0.1 µM, first compound 0.1 µM",15.1%
same,"viability, T/C","second compound 0.1 µM, first compound 0.316 µM",15.7%
same,"viability, T/C","second compound 0.1 µM, first compound 1 µM",13.2%
same,"viability, T/C","second compound 0.1 µM, first compound 3.16 µM",17.5%
same,"viability, T/C","second compound 0.1 µM, first compound 10 µM",14.4%
same,"viability, T/C","second compound 0.316 µM, first compound 0.0316 µM",15.9%
same,"viability, T/C","second compound 0.316 µM, first compound 0.1 µM",16.4%
same,"viability, T/C","second compound 0.316 µM, first compound 0.316 µM",16%
same,"viability, T/C","second compound 0.316 µM, first compound 1 µM",13.4%
same,"viability, T/C","second compound 0.316 µM, first compound 3.16 µM",17.7%
same,"viability, T/C","second compound 0.316 µM, first compound 10 µM",17.8%
same,"viability, T/C","second compound 1 µM, first compound 0.0316 µM",21.5%
same,"viability, T/C","second compound 1 µM, first compound 0.1 µM",15.2%
same,"viability, T/C","second compound 1 µM, first compound 0.316 µM",19.2%
same,"viability, T/C","second compound 1 µM, first compound 1 µM",15.1%
same,"viability, T/C","second compound 1 µM, first compound 3.16 µM",15.9%
same,"viability, T/C","second compound 1 µM, first compound 10 µM",18.9%
O=C(c1ccc(F)c(F)c1Nc1ccc(I)cc1F)N1CC(O)([C@@H]2CCCCN2)C1,"viability, T/C",compound 0.00316 µM,98.2% [middle of 4 runs]
same,"viability, T/C",compound 0.01 µM,74.8% [middle of 4 runs]
same,"viability, T/C",compound 0.0316 µM,60.7% [middle of 4 runs]
same,"viability, T/C",compound 0.1 µM,57% [middle of 4 runs]
same,"viability, T/C",compound 0.316 µM,45.2% [middle of 4 runs]
same,"viability, T/C",compound 1 µM,39.2% [middle of 4 runs]
Cc1nc(N2CCC3(CC2)COC(C)C3N)c(CO)nc1Sc1ccnc(N)c1Cl (stereo not given) + CCn1c(-c2cc(N3CCN(C)CC3)cnc2C(C)OC)c2c3cc(ccc31)-c1csc(n1)CC(NC(=O)C1CC1C)C(=O)N1CCCC(N1)C(=O)OCC(C)(C)C2,IC50,second compound 0.000949 µM,< 31.6 nM
same,IC50,second compound 0.003 µM,< 31.6 nM
same,IC50,second compound 0.00949 µM,< 31.6 nM
same,IC50,second compound 0.03 µM,< 31.6 nM
same,IC50,second compound 0.0949 µM,< 31.6 nM
same,IC50,second compound 0.3 µM,< 31.6 nM
same,"viability, T/C","second compound 0.000949 µM, first compound 0.0316 µM",29.3%
same,"viability, T/C","second compound 0.000949 µM, first compound 0.1 µM",23.1%
same,"viability, T/C","second compound 0.000949 µM, first compound 0.316 µM",21.6%
same,"viability, T/C","second compound 0.000949 µM, first compound 1 µM",17.4%
same,"viability, T/C","second compound 0.000949 µM, first compound 3.16 µM",18.1%
same,"viability, T/C","second compound 0.000949 µM, first compound 10 µM",20.2%
same,"viability, T/C","second compound 0.003 µM, first compound 0.0316 µM",23.6%
same,"viability, T/C","second compound 0.003 µM, first compound 0.1 µM",18.5%
same,"viability, T/C","second compound 0.003 µM, first compound 0.316 µM",16.3%
same,"viability, T/C","second compound 0.003 µM, first compound 1 µM",16.7%
same,"viability, T/C","second compound 0.003 µM, first compound 3.16 µM",18.1%
same,"viability, T/C","second compound 0.003 µM, first compound 10 µM",21.2%
same,"viability, T/C","second compound 0.00949 µM, first compound 0.0316 µM",19.2%
same,"viability, T/C","second compound 0.00949 µM, first compound 0.1 µM",16.1%
same,"viability, T/C","second compound 0.00949 µM, first compound 0.316 µM",19.1%
same,"viability, T/C","second compound 0.00949 µM, first compound 1 µM",15.8%
same,"viability, T/C","second compound 0.00949 µM, first compound 3.16 µM",20.8%
same,"viability, T/C","second compound 0.00949 µM, first compound 10 µM",22.1%
same,"viability, T/C","second compound 0.03 µM, first compound 0.0316 µM",17.4%
same,"viability, T/C","second compound 0.03 µM, first compound 0.1 µM",16.3%
same,"viability, T/C","second compound 0.03 µM, first compound 0.316 µM",18.6%
same,"viability, T/C","second compound 0.03 µM, first compound 1 µM",17.5%
same,"viability, T/C","second compound 0.03 µM, first compound 3.16 µM",20.3%
same,"viability, T/C","second compound 0.03 µM, first compound 10 µM",20.4%
same,"viability, T/C","second compound 0.0949 µM, first compound 0.0316 µM",21%
same,"viability, T/C","second compound 0.0949 µM, first compound 0.1 µM",20.6%
same,"viability, T/C","second compound 0.0949 µM, first compound 0.316 µM",20%
same,"viability, T/C","second compound 0.0949 µM, first compound 1 µM",17.8%
same,"viability, T/C","second compound 0.0949 µM, first compound 3.16 µM",21.7%
same,"viability, T/C","second compound 0.0949 µM, first compound 10 µM",22.3%
same,"viability, T/C","second compound 0.3 µM, first compound 0.0316 µM",20.1%
same,"viability, T/C","second compound 0.3 µM, first compound 0.1 µM",20.2%
same,"viability, T/C","second compound 0.3 µM, first compound 0.316 µM",21.2%
same,"viability, T/C","second compound 0.3 µM, first compound 1 µM",18.1%
same,"viability, T/C","second compound 0.3 µM, first compound 3.16 µM",22.7%
same,"viability, T/C","second compound 0.3 µM, first compound 10 µM",24.4%
